Test results as given in ChEMBL document CHEMBL1649182, “Binding of faropenem and other beta-lactam agents to penicillin-binding proteins of pneumococci with various beta-lactam susceptibilities” (Antimicrob Agents Chemother, 2009).
≈ marks a conversion by molar mass, not a printed value.

Tests used:
[1] = target: T1, Penicillin-binding protein 2B (Streptococcus pneumoniae serotype 4 (strain ATCC BAA-334 / TIGR4), UniProt P0A3M5); experiment: Displacement of Biocillin FL from Streptococcus pneumoniae 3665 PBP2B
T1 sequence (P0A3M5 whole entry): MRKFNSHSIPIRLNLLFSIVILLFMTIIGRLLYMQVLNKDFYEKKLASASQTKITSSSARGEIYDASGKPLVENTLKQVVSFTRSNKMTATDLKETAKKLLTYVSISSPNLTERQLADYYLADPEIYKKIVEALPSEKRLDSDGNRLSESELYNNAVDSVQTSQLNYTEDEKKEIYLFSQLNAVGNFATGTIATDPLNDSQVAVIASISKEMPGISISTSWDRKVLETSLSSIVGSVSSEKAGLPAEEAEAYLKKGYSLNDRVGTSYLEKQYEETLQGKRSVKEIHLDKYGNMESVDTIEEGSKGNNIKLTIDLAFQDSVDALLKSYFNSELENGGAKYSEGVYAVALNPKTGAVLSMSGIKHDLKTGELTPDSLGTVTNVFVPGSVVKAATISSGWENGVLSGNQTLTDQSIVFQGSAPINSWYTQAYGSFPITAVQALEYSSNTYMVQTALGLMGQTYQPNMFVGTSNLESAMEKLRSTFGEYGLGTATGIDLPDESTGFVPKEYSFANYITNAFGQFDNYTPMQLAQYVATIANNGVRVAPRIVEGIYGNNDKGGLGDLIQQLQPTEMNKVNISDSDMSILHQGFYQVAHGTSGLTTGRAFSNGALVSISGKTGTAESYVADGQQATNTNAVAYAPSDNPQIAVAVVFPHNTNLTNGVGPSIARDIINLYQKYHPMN

Streptococcus pneumoniae [2] = experiment: Antimicrobial activity against penicillin-intermediate Streptococcus pneumoniae 3243 by CLSI method; assay type: functional
[3] = Displacement of Biocillin FL from Streptococcus pneumoniae 3413 PBP2A
[4] = Displacement of Biocillin FL from Streptococcus pneumoniae 24 PBP2A
[5] = target: T2, Penicillin-binding protein 1A (Streptococcus pneumoniae serotype 4 (strain ATCC BAA-334 / TIGR4), UniProt Q04707); experiment: Displacement of Biocillin FL from Streptococcus pneumoniae 1076 PBP1A
T2 sequence (Q04707 whole entry): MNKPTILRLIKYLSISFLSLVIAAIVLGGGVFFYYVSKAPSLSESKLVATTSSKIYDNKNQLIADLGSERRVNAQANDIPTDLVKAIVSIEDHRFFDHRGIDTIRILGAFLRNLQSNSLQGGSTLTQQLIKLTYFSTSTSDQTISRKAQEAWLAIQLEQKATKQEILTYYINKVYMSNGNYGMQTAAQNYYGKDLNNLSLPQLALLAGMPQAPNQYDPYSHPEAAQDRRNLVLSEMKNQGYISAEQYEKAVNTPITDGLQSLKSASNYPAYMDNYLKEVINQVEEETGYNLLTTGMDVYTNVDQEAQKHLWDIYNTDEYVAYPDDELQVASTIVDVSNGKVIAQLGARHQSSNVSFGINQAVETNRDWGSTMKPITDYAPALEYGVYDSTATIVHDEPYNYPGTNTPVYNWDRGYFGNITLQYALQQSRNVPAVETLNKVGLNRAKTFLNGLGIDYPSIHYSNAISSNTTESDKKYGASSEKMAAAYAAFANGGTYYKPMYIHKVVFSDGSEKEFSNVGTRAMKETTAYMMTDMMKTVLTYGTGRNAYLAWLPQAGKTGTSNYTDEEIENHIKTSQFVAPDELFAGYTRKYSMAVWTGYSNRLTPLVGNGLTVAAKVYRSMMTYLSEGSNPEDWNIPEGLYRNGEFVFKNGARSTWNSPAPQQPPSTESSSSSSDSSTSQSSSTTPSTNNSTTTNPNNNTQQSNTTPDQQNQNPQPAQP

[6] = Displacement of Biocillin FL from Streptococcus pneumoniae 2527 PBP3
Streptococcus pneumoniae [7] = experiment: Antimicrobial activity against penicillin-intermediate Streptococcus pneumoniae 3665 by CLSI method; assay type: functional
[8] = Displacement of Biocillin FL from Streptococcus pneumoniae 1077 PBP3
[9] = target: T1, Penicillin-binding protein 2B; experiment: Displacement of Biocillin FL from Streptococcus pneumoniae 2527 PBP2B
[10] = target: T2, Penicillin-binding protein 1A; experiment: Displacement of Biocillin FL from Streptococcus pneumoniae 3665 PBP1A
Streptococcus pneumoniae [11] = experiment: Antimicrobial activity against penicillin-resistant Streptococcus pneumoniae 3413 by CLSI method; assay type: functional
Streptococcus pneumoniae [12] = experiment: Antimicrobial activity against penicillin-sensitive Streptococcus pneumoniae 1077 by CLSI method; assay type: functional
[13] = Displacement of Biocillin FL from Streptococcus pneumoniae 3243 PBP1B
Streptococcus pneumoniae [14] = experiment: Antimicrobial activity against Streptococcus pneumoniae 1394 by CLSI method; assay type: functional
[15] = target: T2, Penicillin-binding protein 1A; experiment: Displacement of Biocillin FL from Streptococcus pneumoniae 2527 PBP1A
[16] = target: T2, Penicillin-binding protein 1A; experiment: Displacement of Biocillin FL from Streptococcus pneumoniae 3243 PBP1A
[17] = target: T3, Penicillin-binding protein 2x (Streptococcus pneumoniae serotype 4 (strain ATCC BAA-334 / TIGR4), UniProt P14677); experiment: Displacement of Biocillin FL from Streptococcus pneumoniae 3413 PBP2X
T3 sequence (P14677 whole entry): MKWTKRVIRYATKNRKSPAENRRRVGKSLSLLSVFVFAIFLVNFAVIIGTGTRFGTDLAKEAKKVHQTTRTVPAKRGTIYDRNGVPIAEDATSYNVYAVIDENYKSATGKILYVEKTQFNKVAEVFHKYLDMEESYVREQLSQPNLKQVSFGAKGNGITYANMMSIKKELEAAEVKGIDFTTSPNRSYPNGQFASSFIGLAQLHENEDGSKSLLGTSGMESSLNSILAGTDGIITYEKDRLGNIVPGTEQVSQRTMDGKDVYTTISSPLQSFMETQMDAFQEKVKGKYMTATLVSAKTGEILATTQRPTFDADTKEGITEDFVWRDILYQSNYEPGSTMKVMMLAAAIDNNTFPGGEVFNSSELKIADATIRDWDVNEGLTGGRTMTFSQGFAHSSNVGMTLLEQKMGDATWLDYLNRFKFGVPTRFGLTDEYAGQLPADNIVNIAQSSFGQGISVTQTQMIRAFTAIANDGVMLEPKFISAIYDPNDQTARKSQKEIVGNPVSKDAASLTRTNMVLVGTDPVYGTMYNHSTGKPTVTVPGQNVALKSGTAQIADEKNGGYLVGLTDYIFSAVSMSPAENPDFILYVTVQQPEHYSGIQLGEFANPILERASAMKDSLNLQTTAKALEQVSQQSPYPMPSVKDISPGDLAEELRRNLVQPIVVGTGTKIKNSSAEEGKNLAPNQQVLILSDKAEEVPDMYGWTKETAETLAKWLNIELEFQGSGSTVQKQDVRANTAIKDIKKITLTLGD

[18] = Displacement of Biocillin FL from Streptococcus pneumoniae 3009 PBP2A
[19] = Displacement of Biocillin FL from Streptococcus pneumoniae 24 PBP3
[20] = Displacement of Biocillin FL from Streptococcus pneumoniae 3665 PBP2A
Streptococcus pneumoniae [21] = experiment: Antimicrobial activity against penicillin-resistant Streptococcus pneumoniae 24 by CLSI method; assay type: functional

CC1(C)S[C@@H]2[C@H](NC(=O)[C@H](N)c3ccc(O)cc3)C(=O)N2[C@H]1C(=O)O [AMOXICILLIN]
IC50 [1]: 602 nM
MIC (Streptococcus pneumoniae [2]): 0.06 µg/mL (≈ 0.164 µM)
IC50 [3]: 0.034 µg/mL (≈ 0.093 µM)
IC50 [4]: 0.077 µg/mL (≈ 0.211 µM)
IC50 [5]: 120 nM
IC50 [6]: 0.022 µg/mL (≈ 0.0602 µM)
MIC (Streptococcus pneumoniae [7]): 0.125 µg/mL (≈ 0.342 µM)
IC50 [8]: 0.022 µg/mL (≈ 0.0602 µM)
IC50 [9]: 90.3 nM
IC50 [10]: 183 nM
MIC (Streptococcus pneumoniae [11]): 2 µg/mL (≈ 5.47 µM)
MIC (Streptococcus pneumoniae [12]): 0.016 µg/mL (≈ 0.0438 µM)
IC50 [13]: 0.165 µg/mL (≈ 0.452 µM)
MIC (Streptococcus pneumoniae [14]): 8 µg/mL (≈ 21.9 µM)
IC50 [15]: 134 nM
IC50 [16]: 161 nM
IC50 [17]: 170 nM
IC50 [18]: 0.08 µg/mL (≈ 0.219 µM)
IC50 [19]: 0.049 µg/mL (≈ 0.134 µM)
IC50 [20]: 0.05 µg/mL (≈ 0.137 µM)
MIC (Streptococcus pneumoniae [21]): 2 µg/mL (≈ 5.47 µM)

CO/N=C(\C(=O)N[C@@H]1C(=O)N2C(C(=O)O)=C(COC(N)=O)CS[C@H]12)c1ccco1 [CEFUROXIME]
IC50 [1]: 34700 nM
MIC (Streptococcus pneumoniae [2]): 0.25 µg/mL (≈ 0.589 µM)
IC50 [3]: 0.002 µg/mL (≈ 0.00471 µM)
IC50 [4]: 0.016 µg/mL (≈ 0.0377 µM)
IC50 [5]: 9.43 nM
IC50 [6]: 0.038 µg/mL (≈ 0.0895 µM)
MIC (Streptococcus pneumoniae [7]): 0.125 µg/mL (≈ 0.295 µM)
IC50 [8]: 0.071 µg/mL (≈ 0.167 µM)
IC50 [9]: 6230 nM
IC50 [10]: 4.71 nM
MIC (Streptococcus pneumoniae [11]): 4 µg/mL (≈ 9.43 µM)
MIC (Streptococcus pneumoniae [12]): 0.03 µg/mL (≈ 0.0707 µM)
IC50 [13]: 0.075 µg/mL (≈ 0.177 µM)
MIC (Streptococcus pneumoniae [14]): 16 µg/mL (≈ 37.7 µM)
IC50 [15]: 14.1 nM
IC50 [16]: 14.1 nM
IC50 [17]: 9.43 nM
IC50 [18]: 0.008 µg/mL (≈ 0.0189 µM)
IC50 [19]: 0.002 µg/mL (≈ 0.00471 µM)
IC50 [20]: 0.009 µg/mL (≈ 0.0212 µM)
MIC (Streptococcus pneumoniae [21]): 2 µg/mL (≈ 4.71 µM)

C[C@@H](O)[C@H]1C(=O)N2C(C(=O)O)=C([C@H]3CCCO3)S[C@H]12 [FAROPENEM]
IC50 [1]: 165 nM
MIC (Streptococcus pneumoniae [2]): 0.125 µg/mL (≈ 0.438 µM)
IC50 [3]: 0.007 µg/mL (≈ 0.0245 µM)
IC50 [4]: 0.023 µg/mL (≈ 0.0806 µM)
IC50 [5]: 52.6 nM
IC50 [6]: 0.007 µg/mL (≈ 0.0245 µM)
MIC (Streptococcus pneumoniae [7]): 0.125 µg/mL (≈ 0.438 µM)
IC50 [8]: 0.006 µg/mL (≈ 0.021 µM)
IC50 [9]: 35 nM
IC50 [10]: 105 nM
MIC (Streptococcus pneumoniae [11]): 1 µg/mL (≈ 3.5 µM)
MIC (Streptococcus pneumoniae [12]): 0.03 µg/mL (≈ 0.105 µM)
IC50 [13]: 0.001 µg/mL (≈ 0.0035 µM)
MIC (Streptococcus pneumoniae [14]): 0.03 µg/mL (≈ 0.105 µM)
IC50 [15]: 80.6 nM
IC50 [16]: 14 nM
IC50 [17]: 1520 nM
IC50 [18]: 0.016 µg/mL (≈ 0.0561 µM)
IC50 [19]: 0.015 µg/mL (≈ 0.0526 µM)
IC50 [20]: 0.015 µg/mL (≈ 0.0526 µM)
MIC (Streptococcus pneumoniae [21]): 1 µg/mL (≈ 3.5 µM)

C[C@@H](O)[C@H]1C(=O)N2C(C(=O)O)=C(SCCNC=N)C[C@H]12 [IMIPENEM ANHYDROUS]
IC50 [1]: 2170 nM
MIC (Streptococcus pneumoniae [2]): 0.016 µg/mL (≈ 0.0534 µM)
IC50 [3]: 0.337 µg/mL (≈ 1.13 µM)
IC50 [4]: 0.352 µg/mL (≈ 1.18 µM)
IC50 [5]: 301 nM
IC50 [6]: 0.034 µg/mL (≈ 0.114 µM)
MIC (Streptococcus pneumoniae [7]): 0.03 µg/mL (≈ 0.1 µM)
IC50 [8]: 0.219 µg/mL (≈ 0.732 µM)
IC50 [9]: 207 nM
IC50 [10]: 965 nM
MIC (Streptococcus pneumoniae [11]): 0.125 µg/mL (≈ 0.418 µM)
MIC (Streptococcus pneumoniae [12]): 0.008 µg/mL (≈ 0.0267 µM)
IC50 [13]: 0.108 µg/mL (≈ 0.361 µM)
MIC (Streptococcus pneumoniae [14]): 0.25 µg/mL (≈ 0.835 µM)
IC50 [15]: 140 nM
IC50 [16]: 608 nM
IC50 [17]: 1430 nM
IC50 [18]: 0.054 µg/mL (≈ 0.18 µM)
IC50 [19]: 0.2 µg/mL (≈ 0.668 µM)
IC50 [20]: 0.233 µg/mL (≈ 0.778 µM)
MIC (Streptococcus pneumoniae [21]): 0.25 µg/mL (≈ 0.835 µM)

CC1(C)S[C@@H]2[C@H](NC(=O)Cc3ccccc3)C(=O)N2[C@H]1C(=O)O [PENICILLIN G]
IC50 [1]: 467 nM
MIC (Streptococcus pneumoniae [2]): 0.25 µg/mL (≈ 0.748 µM)
IC50 [3]: 0.015 µg/mL (≈ 0.0449 µM)
IC50 [4]: 0.133 µg/mL (≈ 0.398 µM)
IC50 [5]: 47.8 nM
IC50 [6]: 0.014 µg/mL (≈ 0.0419 µM)
MIC (Streptococcus pneumoniae [7]): 0.125 µg/mL (≈ 0.374 µM)
IC50 [8]: 0.01 µg/mL (≈ 0.0299 µM)
IC50 [9]: 287 nM
IC50 [10]: 92.7 nM
MIC (Streptococcus pneumoniae [11]): 4 µg/mL (≈ 12 µM)
MIC (Streptococcus pneumoniae [12]): 0.03 µg/mL (≈ 0.0897 µM)
IC50 [13]: 0.01 µg/mL (≈ 0.0299 µM)
MIC (Streptococcus pneumoniae [14]): 4 µg/mL (≈ 12 µM)
IC50 [15]: 5.98 nM
IC50 [16]: 23.9 nM
IC50 [17]: 1920 nM
IC50 [18]: 0.011 µg/mL (≈ 0.0329 µM)
IC50 [19]: 0.004 µg/mL (≈ 0.012 µM)
IC50 [20]: 0.016 µg/mL (≈ 0.0478 µM)
MIC (Streptococcus pneumoniae [21]): 4 µg/mL (≈ 12 µM)
